Assay results from the supplement of paper PMC6045584.
± gives the standard deviation of the averaged measurements.

The test systems below were run with O=C(O)C1(C(=O)O)CCC1.[NH2-].[NH2-].[Pt+2] [CARBOPLATIN] (assay: surviving fraction relative to DMSO-only wells; higher = less growth inhibition). Settings: 10 nM; exposure time: 5 days.
Method in brief: (§1)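 Inhibitors were tested at 0.5, 1, 5, 10, 50, 100, 500 and 1000 nM, applied continuously for five days beginning 24 hours after log-phase tumour cells were seeded at 250–500 per well in 384-well plates. CellTiter-Glo luminescence served as the viability measure, expressed as surviving fraction against the median of DMSO-only wells. Each line, screened three times, was kept only with replicate Pearson r >0.7 and median Z' >0.3.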
In the case of U2OS BONE, the surviving fraction is reported as 1.1 ± 0.028.
H23 LUNG showed a surviving fraction of 1.01 ± 0.03.
For DU4475 BREAST, the surviving fraction was 1.04 ± 0.089.
SKBR3 BREAST was tested, and the surviving fraction was 0.987 ± 0.2.
Work on SUM149 BREAST yielded a surviving fraction of 0.943 ± 0.074.

Same assay, conditions: 50 nM; exposure time: 5 days
U2OS BONE showed a surviving fraction of 1.1 ± 0.049.
For H23 LUNG, the surviving fraction was 1.03 ± 0.037.
DU4475 BREAST showed a surviving fraction of 0.909 ± 0.029.
Work on SKBR3 BREAST yielded a surviving fraction of 1.08 ± 0.049.
SUM149 BREAST was tested, and the surviving fraction was 0.909 ± 0.06.

Same assay, conditions: 100 nM; exposure time: 5 days
Work on U2OS BONE yielded a surviving fraction of 1.077 ± 0.0098.
With H23 LUNG the surviving fraction was 1.15 ± 0.02.
With DU4475 BREAST the surviving fraction was 0.975 ± 0.18.
SKBR3 BREAST gave a surviving fraction of 1.04 ± 0.073.
SUM149 BREAST showed a surviving fraction of 0.905 ± 0.076.

Same assay, conditions: 500 nM; exposure time: 5 days
In the case of U2OS BONE, the surviving fraction is reported as 1.06 ± 0.016.
In the case of H23 LUNG, the surviving fraction is reported as 1.09 ± 0.046.
Work on DU4475 BREAST yielded a surviving fraction of 0.895 ± 0.06.
SKBR3 BREAST gave a surviving fraction of 1.07 ± 0.073.
SUM149 BREAST gave a surviving fraction of 0.927 ± 0.057.

Same assay, conditions: 1000 nM; exposure time: 5 days
In the case of U2OS BONE, the surviving fraction is reported as 1.05 ± 0.032.
H23 LUNG showed a surviving fraction of 1.11 ± 0.067.
DU4475 BREAST showed a surviving fraction of 1.03 ± 0.035.
SKBR3 BREAST was tested, and the surviving fraction was 1.03 ± 0.14.
Work on SUM149 BREAST yielded a surviving fraction of 0.927 ± 0.077.

What follows are test systems tested with CC[C@@]1(O)C(=O)OCc2c1cc1n(c2=O)Cc2cc3ccccc3nc2-1 [CAMPTOTHECIN] in the same assay as above. Settings: 0.5 nM; exposure time: 5 days.
Method in brief: as §1
U2OS BONE gave a surviving fraction of 0.924 ± 0.055.
With H23 LUNG the surviving fraction was 0.919 ± 0.02.
With DU4475 BREAST the surviving fraction was 0.759 ± 0.11.
For SKBR3 BREAST, the surviving fraction was 0.83 ± 0.073.

Same assay, conditions: 1 nM; exposure time: 5 days
U2OS BONE showed a surviving fraction of 0.943 ± 0.054.
H23 LUNG gave a surviving fraction of 0.916 ± 0.041.
Test System DU4475 BREAST has a surviving fraction of 0.643 ± 0.064.
Work on SKBR3 BREAST yielded a surviving fraction of 0.806 ± 0.029.

Same assay, conditions: 5 nM; exposure time: 5 days
Test System U2OS BONE has a surviving fraction of 0.948 ± 0.025.
For H23 LUNG, the surviving fraction was 0.56 ± 0.021.
DU4475 BREAST was tested, and the surviving fraction was 0.28 ± 0.055.
SKBR3 BREAST was tested, and the surviving fraction was 0.757 ± 0.1.

Same assay, conditions: 10 nM; exposure time: 5 days
Test System U2OS BONE has a surviving fraction of 0.733 ± 0.03.
H23 LUNG gave a surviving fraction of 0.269 ± 0.0046.
Work on DU4475 BREAST yielded a surviving fraction of 0.135 ± 0.018.
With SKBR3 BREAST the surviving fraction was 0.529 ± 0.029.
Test System SUM149 BREAST has a surviving fraction of 0.126 ± 0.0081.

Same assay, conditions: 50 nM; exposure time: 5 days
Work on U2OS BONE yielded a surviving fraction of 0.567 ± 0.011.
Test System H23 LUNG has a surviving fraction of 0.0917 ± 0.006.
DU4475 BREAST showed a surviving fraction of 0.0357 ± 0.0042.
With SKBR3 BREAST the surviving fraction was 0.222 ± 0.01.
Test System SUM149 BREAST has a surviving fraction of 0.102 ± 0.0081.

Same assay, conditions: 100 nM; exposure time: 5 days
Test System U2OS BONE has a surviving fraction of 0.464 ± 0.0056.
H23 LUNG was tested, and the surviving fraction was 0.0627 ± 0.0011.
With DU4475 BREAST the surviving fraction was 0.0227 ± 0.0045.
For SKBR3 BREAST, the surviving fraction was 0.166 ± 0.013.
In the case of SUM149 BREAST, the surviving fraction is reported as 0.0913 ± 0.0049.

Same assay, conditions: 500 nM; exposure time: 5 days
Test System U2OS BONE has a surviving fraction of 0.121 ± 0.013.
H23 LUNG showed a surviving fraction of 0.0193 ± 0.00058.
Work on DU4475 BREAST yielded a surviving fraction of 0.0217 ± 0.0015.
For SKBR3 BREAST, the surviving fraction was 0.0683 ± 0.0042.
Test System SUM149 BREAST has a surviving fraction of 0.048 ± 0.0052.

Same assay, conditions: 1000 nM; exposure time: 5 days
U2OS BONE was tested, and the surviving fraction was 0.0677 ± 0.0097.
Work on H23 LUNG yielded a surviving fraction of 0.0197 ± 0.00058.
Test System DU4475 BREAST has a surviving fraction of 0.0247 ± 0.0025.
In the case of SKBR3 BREAST, the surviving fraction is reported as 0.0517 ± 0.0049.
Work on SUM149 BREAST yielded a surviving fraction of 0.0367 ± 0.0055.

Each test system was assayed with CC(=O)NCC(=O)N1[C@@H]2CC[C@H]1c1ccc(Nc3ncc(C(F)(F)F)c(NC4CCC4)n3)cc12 in the same assay as above. Settings: 0.5 nM; exposure time: 5 days.
Method in brief: as §1
Test System U2OS BONE has a surviving fraction of 1.07 ± 0.016.
H23 LUNG showed a surviving fraction of 0.971 ± 0.037.
Test System DU4475 BREAST has a surviving fraction of 0.776 ± 0.12.
For SKBR3 BREAST, the surviving fraction was 1.09 ± 0.12.
With SUM149 BREAST the surviving fraction was 0.949 ± 0.11.

Same assay, conditions: 1 nM; exposure time: 5 days
U2OS BONE was tested, and the surviving fraction was 1.02 ± 0.04.
H23 LUNG was tested, and the surviving fraction was 0.95 ± 0.015.
Work on DU4475 BREAST yielded a surviving fraction of 0.802 ± 0.15.
With SKBR3 BREAST the surviving fraction was 0.942 ± 0.2.
Test System SUM149 BREAST has a surviving fraction of 1.02 ± 0.11.

Same assay, conditions: 5 nM; exposure time: 5 days
Work on U2OS BONE yielded a surviving fraction of 1.04 ± 0.061.
With H23 LUNG the surviving fraction was 0.936 ± 0.037.
DU4475 BREAST was tested, and the surviving fraction was 0.821 ± 0.16.
In the case of SKBR3 BREAST, the surviving fraction is reported as 1.07 ± 0.18.
Test System SUM149 BREAST has a surviving fraction of 1.07 ± 0.089.

Same assay, conditions: 10 nM; exposure time: 5 days
U2OS BONE was tested, and the surviving fraction was 1.01 ± 0.014.
H23 LUNG was tested, and the surviving fraction was 0.931 ± 0.029.
Test System DU4475 BREAST has a surviving fraction of 0.783 ± 0.2.
For SKBR3 BREAST, the surviving fraction was 1 ± 0.16.
SUM149 BREAST was tested, and the surviving fraction was 0.986 ± 0.056.

Same assay, conditions: 50 nM; exposure time: 5 days
For U2OS BONE, the surviving fraction was 0.725 ± 0.015.
Test System H23 LUNG has a surviving fraction of 0.949 ± 0.04.
DU4475 BREAST showed a surviving fraction of 0.49 ± 0.36.
For SKBR3 BREAST, the surviving fraction was 0.762 ± 0.06.
With SUM149 BREAST the surviving fraction was 0.67 ± 0.074.

Same assay, conditions: 100 nM; exposure time: 5 days
U2OS BONE showed a surviving fraction of 0.483 ± 0.0044.
With H23 LUNG the surviving fraction was 0.69 ± 0.051.
Test System DU4475 BREAST has a surviving fraction of 0.131 ± 0.097.
In the case of SKBR3 BREAST, the surviving fraction is reported as 0.892 ± 0.14.
In the case of SUM149 BREAST, the surviving fraction is reported as 0.389 ± 0.071.

Same assay, conditions: 500 nM; exposure time: 5 days
U2OS BONE was tested, and the surviving fraction was 0.314 ± 0.016.
In the case of H23 LUNG, the surviving fraction is reported as 0.471 ± 0.0074.
For DU4475 BREAST, the surviving fraction was 0.0413 ± 0.016.
With SKBR3 BREAST the surviving fraction was 1.13 ± 0.039.
With SUM149 BREAST the surviving fraction was 0.267 ± 0.029.

Same assay, conditions: 1000 nM; exposure time: 5 days
U2OS BONE was tested, and the surviving fraction was 0.225 ± 0.011.
H23 LUNG showed a surviving fraction of 0.421 ± 0.014.
DU4475 BREAST showed a surviving fraction of 0.0397 ± 0.0038.
With SKBR3 BREAST the surviving fraction was 0.865 ± 0.17.
SUM149 BREAST gave a surviving fraction of 0.224 ± 0.032.
